In patent US10294202B2, “Pyrrolidinones as herbicides” (FMC Corporation, priority 2013, dated 2019):

Experiments:
lambsquarters = assay: Test C pre-/postemergence herbicide test; format: in vivo, Chenopodium album
Source text: (§1) Seeds of plant species selected from blackgrass (Alopecurus myosuroides), ryegrass, Italian (Italian ryegrass, Lolium multiflorum), wheat (winter wheat, Triticum aestivum), galium (catchweed bedstraw, Galium aparine), corn (Zea mays), crabgrass, large (large crabgrass, Digitaria sanguinalis), foxtail, giant (giant foxtail, Setaria faberii), johnsongrass (Sorghum halepense), lambsquarters (Chenopodium album), morningglory (Ipomoea coccinea), nutsedge, yellow (yellow nutsedge, Cyperus esculentus), pigweed (Amaranthus retroflexus), ragweed (common ragweed, Ambrosia elatior), soybean (Glycine max), barnyardgrass (Echinochloa crus-galli), oilseed rape (Brassica napus), waterhemp (common waterhemp, Amaranthus rudis), kochia (Kochia scoparia), oat, wild (wild oat, Avena fatua), surinam grass (Brachiaria decumbens), foxtail, green (green foxtail, Setaria viridis), goosegrass (Eleusine indica), bromegrass, downy (downy bromegrass, Bromus tectorum), nightshade (eastern black nightshade, Solanum ptycanthum), cocklebur (common cocklebur, Xanthium strumarium), cupgrass, woolly (woolly cupgrass, Eriochloa villosa), bermudagrass (Cynodon dactylon), sunflower, (common oilseed sunflower, Helianthus annuus), Russian thistle (Salsola kali) and velvetleaf (Abutilon theophrasti) were planted into a blend of loam soil and sand and treated preemergence with test chemicals formulated in a non-phytotoxic solvent mixture which included a surfactant. At the same time, plants selected from these crop and weed species and also barley (winter barley, Hordeum vulgare), […]), chickweed (common chickweed, Stellaria media), deadnettle (henbit deadnettle, Lamium amplexicaule), and canarygrass (littleseed canarygrass, Phalaris minor) were planted in pots containing Redi-Earth® planting medium (Scotts Company, 14111 Scottslawn Road, Marysville, Ohio 43041) comprising spaghnum peat moss, vermiculite, wetting agent and starter nutrients and treated with postemergence applications of test chemicals formulated in the same manner. Plants ranged in height from 2 to 18 cm (1- to 4-leaf stage) for postemergence treatments. Treated plants and controls were maintained in a greenhouse for 13 to 15 days, after which time all species were compared to controls and visually evaluated. Plant response ratings, summarized in Table C, are based on a scale of 0 to 100 where 0 is no effect and 100 is complete control. A dash (-) response means no test result.

morningglory = assay: Test A pre-/postemergence herbicide test; format: in vivo, Ipomoea spp.
Outline: (§2)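 Seeds in loam–sand blend received preemergence directed soil spray; separately, plants 2–10 cm at one- to two-leaf stage received postemergence spray, both with test chemicals in non-phytotoxic solvent with surfactant. After ~10 days in greenhouse, injury rated visually against untreated controls, 0 (no effect) to 100 (complete control).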

kochia = assay: Test A pre-/postemergence herbicide test; format: in vivo, Kochia scoparia
Outline: as §2

ragweed = assay: Test A pre-/postemergence herbicide test; format: in vivo, Ambrosia elatior
Outline: as §2

barnyardgrass = assay: Test C pre-/postemergence herbicide test; format: in vivo, Echinochloa crus-galli
Source text: as §1

ryegrass, Italian = assay: Test A pre-/postemergence herbicide test; format: in vivo, Lolium multiflorum
Outline: as §2

[1] = Preemergence, 62 g ai/ha, scale 0 to 100
[2] = Preemergence, 125 g ai/ha, scale 0 to 100 (0 no effect, 100 complete control)
[3] = Postemergence, 1000 g ai/ha, 0 to 100 scale (0 no effect, 100 complete control)
[4] = Postemergence, 31 g ai/ha, scale 0 (no effect) to 100 (complete control)
[5] = Postemergence, 62 g ai/ha, scale 0 to 100 (0 no effect, 100 complete control)
[6] = Postemergence, 125 g ai/ha, scale 0 to 100 (0 no effect, 100 complete control)
[7] = Postemergence, 250 g ai/ha, scale 0 to 100 (0 no effect, 100 complete control)
[8] = Preemergence, 31 g ai/ha, scale 0 to 100, 0 is no effect and 100 is complete control
[9] = Postemergence, 500 g ai/ha, 0 to 100 scale (0 no effect, 100 complete control)
[10] = Postemergence, 125 g ai/ha, 0 to 100 scale, 0 is no effect, 100 is complete control
[11] = Preemergence, 125 g ai/ha, 0 to 100 scale where 0 is no effect and 100 is complete control
[12] = preemergence, 500 g ai/ha, 0 to 100 scale, 0 is no effect and 100 is complete control
[13] = Postemergence, 125 g ai/ha, visual rating on 0 to 100 scale (0 no effect, 100 complete control), approx. 10 days
[14] = Postemergence, 31 g ai/ha, scale 0 to 100 (0 no effect, 100 complete control)
[15] = Postemergence, 62 g ai/ha, scale 0 (no effect) to 100 (complete control)
[16] = Preemergence, 62 g ai/ha, scale 0 to 100 (0 no effect, 100 complete control)

SMILES	Plant response rating, Lambsquarters (lambsquarters; [1])	Plant response rating, Lambsquarters (lambsquarters; [2])	Plant response rating, Morningglory (morningglory; [3])	Plant response rating, Lambsquarters (lambsquarters; [4])	Plant response rating, Lambsquarters (lambsquarters; [5])	Plant response rating, Lambsquarters (lambsquarters; [6])	Plant response rating, Lambsquarters (lambsquarters; [7])	Lambsquarters plant response rating (lambsquarters; [8])	Plant response rating (scale of 0 to 100), Lambsquarters (lambsquarters; Preemergence, 250 g ai/ha)	Plant response rating, Kochia (kochia; [10])	Plant response rating, Kochia (kochia; [9])	Plant response rating, Kochia (kochia; [11])	Plant response rating, Kochia (kochia; [12])	Plant response rating, Ragweed (ragweed; [13])	Plant response rating, Ragweed (ragweed; [9])	Plant response rating, Ragweed (ragweed; [11])	Plant response rating, Ragweed (ragweed; [12])	Plant response rating, Barnyardgrass (barnyardgrass; [14])	Plant response rating, Barnyardgrass (barnyardgrass; [15])	Plant response rating, Barnyardgrass (barnyardgrass; [6])	other results
O=C1NCC(c2cc(F)c(F)c(F)c2)C1C(=O)Nc1ccccc1C(F)(F)F (racemic) [Compound 33]	0	25	20																		
O=C1NCC(c2cc(F)c(F)c(F)c2)C1C(=O)Nc1ccccc1F (racemic) [Compound 34]	40	80	20	0	0	10	55														
Cc1ccccc1NC(=O)C1C(=O)NCC1c1cc(F)c(F)c(F)c1 (racemic) [Compound 35]	0	0	0																		Plant response rating, Morningglory (morningglory; Preemergence, 1000 g ai/ha, visual rating on 0 to 100 scale (0 no effect, 100 complete control), approx. 10 days): 0
O=C1NCC(c2ccccc2)C1C(=O)Nc1ccccc1F (racemic) [Compound 81]	0	0		0	0	0	3	0	27												Plant response rating, Morningglory (morningglory; Postemergence, 125 g ai/ha, 0 to 100 scale, 0 no effect, 100 complete control): 0; Plant response rating, Morningglory (morningglory; [9]): 0; Morningglory plant response rating (morningglory; Preemergence, 125 g ai/ha, visual rating on 0 to 100 scale (0 no effect, 100 complete control)): 0; Plant response rating, Morningglory (morningglory; preemergence, 500 g ai/ha, 0 to 100 scale): 20
O=C1NCC(c2cc(F)cc(F)c2)C1C(=O)Nc1ccc(F)cc1F (racemic) [Compound 278]		0				20	20	0	0	0	0	0	0	0	0	0	0	0	10	55	Plant response rating, Barnyardgrass (barnyardgrass; [7]): 75; Barnyardgrass plant response rating (barnyardgrass; [8]): 65; Barnyardgrass plant response rating (barnyardgrass; [16]): 90; Plant response rating, Barnyardgrass (barnyardgrass; [2]): 95; Plant response rating (scale of 0 to 100; 0 is no effect, 100 is complete control), Barnyardgrass (barnyardgrass; Preemergence, 250 g ai/ha): 100; Plant response rating, Lambsquarters (lambsquarters; [14]): 0; Plant response rating, Lambsquarters (lambsquarters; [15]): 0; Lambsquarters plant response rating (lambsquarters; [16]): 0; Plant response rating, Ryegrass, Italian (ryegrass, Italian; [13]): 0; Plant response rating, Ryegrass, Italian (ryegrass, Italian; [9]): 0; Plant response rating, Ryegrass, Italian (ryegrass, Italian; [11]): 0; Plant response rating, Ryegrass, Italian (ryegrass, Italian; [12]): 0
O=C1NCC(c2cc(F)cc(F)c2)C1C(=O)Nc1cccc(F)c1F (racemic) [Compound 279]		65				45	45	0	90	0	40	40	80	0	0	0	0	15	55	85	Plant response rating, Barnyardgrass (barnyardgrass; [7]): 85; Barnyardgrass plant response rating (barnyardgrass; [8]): 80; Barnyardgrass plant response rating (barnyardgrass; [16]): 95; Plant response rating, Barnyardgrass (barnyardgrass; [2]): 95; Plant response rating (scale of 0 to 100; 0 is no effect, 100 is complete control), Barnyardgrass (barnyardgrass; Preemergence, 250 g ai/ha): 98; Plant response rating, Lambsquarters (lambsquarters; [14]): 0; Plant response rating, Lambsquarters (lambsquarters; [15]): 0; Lambsquarters plant response rating (lambsquarters; [16]): 0; Plant response rating, Ryegrass, Italian (ryegrass, Italian; [13]): 0; Plant response rating, Ryegrass, Italian (ryegrass, Italian; [9]): 0; Plant response rating, Ryegrass, Italian (ryegrass, Italian; [11]): 0; Plant response rating, Ryegrass, Italian (ryegrass, Italian; [12]): 60
